Results reported in US7384625B2, “Method and composition for rejuvenating hair, nails, tissues, cells and organs by ex-vivo or immersive treatment” (Farington Pharmaceuticals, LLC, priority 2001, dated 2008).
“Also recorded” adds a separate entry of the source.

Tests used:
[1] = Tissue diffusion coefficient rejuvenation of ex vivo donor lungs, tested in the recipient patient after transplantation; conditions: ex vivo organ flushed once with cooled preservation solution containing 0.01 to 1.0 mM; testing in recipient patient
Experimental: The following is an illustration of a methodology that can be used to rejuvenate ex vivo and prior to transplantation to a recipient patient the lungs removed from a donor cadaver aged 21 years or more. […] Individuals' deformability and diffusion characteristics can be characterized by using the standard methodology of determination of the lung diffusing capacity for carbon monoxide (e.g., Chang et al., Chest (1992) 102:139-42). The diffusing capacity is measured in the supine patient using a single breath of carbon monoxide (0.3%) held for ten seconds using a CPI 5000 IV (Gould Instruments, Houston, Tex.), corrected for alveolar volume. A young subject (20 years old) will have approximately a 40% higher diffusion coefficient for carbon monoxide compared to older subjects (60 yrs). The ex vivo organ is flushed once with a cooled preservation solution containing 3-(2-phenyl-2-oxoethyl)-4,5-dimethylthiazolium chloride at a concentration of 0.01 to 1.0 mM.

[2] = Hair deformability: stress vs strain of bending individual hairs before and after treatment; conditions: FIG. 1
Description: Methodology for Determination of Stress vs Strain Relationship (Stiffness) The distensibility (i.e, elasticity, rigidity, shear, tensile strength, compression, etc.) of hair, nails, tendons, etc. may be determined using widely available commercial devices, such as manufactured by Instron. Alternatively, other test methods known to a practitioner of the art may be employed. The test assay for determining whether hair has been “rejuvenated” for the present invention is the following. Individual scalp hairs were cemented into the ends of glass capillary tubes such that several centimeters of the shaft protruded from the end. This hair was then trimmed to extend 18 mm from the end of the tube. The unit was then inserted into a micropipette positioner for study. Evaluation consisted of bending the hair by applying a specified force and displacement. Thus, this determination of stress vs strain of bending assessed elasticity, compressibility, and shear of each hair shaft. Each hair served as its own control, with baseline and post-treatment properties assessed and directly compared. A 1 mm thick plate with a 0.5 mm diameter hole drilled through was attached to the surface of an isometric strain gauge. To perform each measurement, the capillary tube was placed over the fenestrated plate and the hair end inserted into the hole in the plate without touching the strain gauge. The hair was then straightened, if necessary, such that its axis formed a 10 degree angle with respect to vertical. Once positioned, the hair was then lowered onto the surface of the strain gauge. The force required to bend each hair a specified distance was determined over a wide range of displacements. From the stress vs strain relationships thus derived, the work to bend each hair under different treatment regimens can be directly compared. For purposes of the present invention, the term “rejuvenated” hair means an improvement of at least 20% in the measured value of the treated hair, toward the values seen in young, undamaged hair (i.e. healthy). […] The stress versus strain relationship was determined as a baseline. […]

[3] = Tendon rejuvenation: elasticity in a materials testing device before and after ex vivo exposure; parameters: species or system hen; conditions: FIG. 2
Experimental: The distensibility (i.e, elasticity, rigidity, shear, tensile strength, compression, etc.) of hair, nails, tendons, etc. may be determined using widely available commercial devices, such as manufactured by Instron. Alternatively, other test methods known to a practitioner of the art may be employed. The elasticity of the Achilles tendon of a one year old hen was determined in a materials testing device before and after ex vivo exposure to 3-(2-phenyl-2-oxoethyl)-4,5-dimethylthiazolium chloride (1 mM) in a bath for 15 minutes.

Cc1sc[n+](CC(=O)c2ccccc2)c1C.[Cl-] [3-(2-phenyl-2-oxoethyl)-4,5-dimethylthiazolium chloride]
deformability of transplanted lungs [1]: improved
diffusional capacity of transplanted lungs [1]: improved
distensibility of hair ([2]; 1 mM, 15 minutes, after treatment vs baseline): increased distensibility
stiffness of hair ([2]; after treatment): decreases the stiffness
reduction of resulting strain versus before treatment ([2]; hair immersed in 1 mM solution for 15 minutes, stress greater than 0.08): about 50%
distensibility of tendon ([3]; 1 mM bath for 15 minutes ex vivo, post-treatment): improved; also recorded: significantly increased
strain of treated tendon as percent of the strain of the untreated tendon ([3]; 1 mM bath for 15 minutes ex vivo, stress greater than 0.04): about 50%
tensile strength of tendon ([3]; after treatment): improved
